In US8148086B2, “Methods to predict and prevent resistance to taxoid compounds” (Children's Medical Center Corporatioin, priority 2005, dated 2012):

Experiments:
[1] = system: MES-SA and MES-SA/DX5 cells; experiment: MTT cytotoxicity assay, paclitaxel on cell proliferation/survival; type: cell-based, human; conditions: MTT 72 h after paclitaxel addition
Protocol: (§1) FIGS. 1A and 1B show graphs illustrating the effect of paclitaxel on cell proliferation. A549 and A549 TR cell lines (FIG. 1A) and MES-SA and MES-SA-DX5 cell lines (FIG. 1B) were treated with various concentrations of paclitaxel. 24 hours after 1×10^4 cells/well were seeded in 96 well plates. MTT assay for cell survival was performed 72 h after paclitaxel addition. X axis: concentration of paclitaxel, Y axis-% survival.
(§2) Cell Culture. The human non-small cell lung carcinoma cell line A549 and its Paclitaxel-resistant derivative cell lines were cultured in F-12 Ham nutrient mixture (Invitrogren, Carlsbad, Calif.) supplemented with 10% fetal bovine serum (FBS) at 37° C. in a humidified atmosphere with 5% CO2/95% air. The paclitaxel-resistant cell lines were grown under selective pressure (100 nM paclitaxel), then placed in Paclitaxel-free culture medium 5-7 days before experiments were performed. The uterine sarcoma cells (MES-SA) and the multidrug resistant derivative (MES-SA/DX5) were maintained in McCoy's 5A media (ATCC, Rockville, Md.) supplemented with 10% FBS. […]
(§3) Cytotoxicity Assays. Cell growth inhibition was determined by 3-(4,5-dimethylthiazol-2-yl)-2,5-diphenyltetrazolium (MTT) bromide assay using MTT (Sigma Chemicals, St. Louis, Mo.) reagent in 96-well plates. […] Absorbance was determined using a 96-well SpectraMax plate reader (Molecular Devices, Sunnyvale, Calif.) at 570 nm.

A549 and A549-TR cells = experiment: as above; type: cell-based, human; conditions: MTT 72 h after paclitaxel addition
Protocol: as §1, §2, §3

For `CC(=O)O[C@H]1C(=O)[C@@]2(C)[C@H]([C@H](OC(=O)c3ccccc3)[C@]3(O)C[C@H](OC(=O)[C@H](O)[C@@H](NC(=O)c4ccccc4)c4ccccc4)C(C)=C1C3(C)C)[C@]1(OC(C)=O)CO[C@@H]1C[C@@H]2O` [paclitaxel, Paclitaxel], the “difference in sensitivity to paclitaxel, resistant subline vs parental line” value [1] was “greater than 100 fold” and the “difference in sensitivity to paclitaxel, resistant subline vs parental line” value (A549 and A549-TR cells) was “greater than 100 fold”.
